Assay [1] relates to HeLa cells. In words: MTT cytotoxicity, HeLa. Conditions: 72 h, mean values. The assay is classed as cell-based, human. How it is done: (§1) All of the cell lines were obtained from the American Type Culture Collection (ATCC, Manassas, VA, USA) and grown in DMEM or RPMI culture medium containing 10% fetal bovine serum (v/v) in 5% CO2 at 37 °C.
(§2) Confluent cells in good state were cultured in 96-well plates (5–10 × 10^4 cells/mL). After cells were attached to the plate, compounds with various concentrations were applied at 37 °C for 72 h. Then, the cells were incubated with 10 μL of 5 mg/mL MTT reagent at 37 °C for 4 h. The supernatant was removed, and the cells were dissolved in 100 μL dimethyl sulfoxide and shaken for 5 min. Finally, the light absorption (OD) of the dissolved cells was measured at […].

The test system of assay [2] is HGC-27 cells. In words: MTT cytotoxicity, HGC-27. The settings on record: 72 h, mean values. In kind it is cell-based, human. How it is done:
as §1, §2

For assay [3], the system named is MCF-7 cells. The experiment in a line: MTT cytotoxicity, MCF-7. In kind it is cell-based, human. The settings on record: 72 h, mean values. The method, then: as §1, §2
Assay [4] has as its system HepG2 cells. The experiment in a line: MTT cytotoxicity, HepG2. Conditions: read-out: Cancer Cells IC50, HepG2. In kind it is cell-based. How it is done:
(§3) All of the cell lines were obtained from the American Type Culture Collection (ATCC, Manassas, VA, USA) and grown in DMEM or RPMI culture medium containing 10% fetal bovine serum (v/v) in 5% CO2 at 37 °C. Confluent cells in good state were cultured in 96-well plates (5–10 × 10^4 cells/mL). After cells were attached to the plate, compounds with various concentrations were applied at 37 °C for 72 h. […] The supernatant was removed, and the cells were dissolved in 100 μL dimethyl sulfoxide and shaken for 5 min.

The test system of assay [5] is A549 cells. In words: MTT cytotoxicity, A549. The assay is classed as cell-based. The settings on record: read-out: Cancer Cells IC50, A549. The method, then: as §3
Assay [6] deals with MDA-MB231 cells. In words: MTT cytotoxicity, MDA-MB231. The assay is classed as cell-based. Conditions: read-out: Cancer Cells IC50, MDA-MB231. How it is done:
as §3

Assay [7] concerns H460 cells. The experiment in a line: MTT cytotoxicity, H460. In kind it is cell-based. The settings on record: read-out: Cancer Cells IC50, H460. The method, then:
as §3

Assay [8] deals with A875 cells. In words: MTT cytotoxicity, A875. The assay is classed as cell-based. Conditions: read-out: Cancer Cells IC50, A875. The method, then: as §3
Assay [9] concerns MRC-5 cells. The experiment in a line: MTT cytotoxicity, MRC-5 normal cells. In kind it is cell-based. How it is done: as §3
Assay [10] deals with LO2 cells. In words: MTT cytotoxicity, LO2 normal cells. The assay is classed as cell-based. How it is done:
as §3

The subject of assay [11] is HGC-27 cells. In words: Colony formation assay. Conditions: treatment for two weeks, 5 μM and 10 μM, dose-dependent. The assay is classed as cell-based, human. How it is done:
HGC-27 cells were cultured in a six-well plate (500 cells/well) and treated with 9u and 9h in 10% serum medium for two weeks, then fixed with methanol at room temperature and stained with 0.1% crystal violet, and images were scanned with a scanner.

Assay [12] concerns HGC-27 cells. The experiment in a line: Flow cytometry cell cycle assay. In kind it is cell-based, human. Further details: dose or concentration left out as unconfirmed. Conditions: 8 h of treatment. The method, then: Flow cytometry analysis was applied for cell cycle detection. Firstly, HGC-27 cell was adjusted to 1 × 10^6/mL, inoculated into a six-well plate and placed in an incubator at 37 °C containing 5% CO2 saturated humidity overnight. After the cells were fully attached to the plate, […] 9u and 9h were administrated to the cells for 8 h. After cells were collected and fixed with 70% ethanol, DAPI was applied to stain the cells at the final concentration of 1 μg/mL; subsequently, on-board testing by flow cytometry (Cytoflex S (Beckman Coulter, Brea, CA, USA)) was conducted.

For assay [13], the system named is cleaved PARP. In words: Western blot of cleaved PARP. In kind it is cell-based, human. Conditions: HGC-27 cells, different times and concentrations, 24 h. The method, then:
(§4) Equal amounts of the lysates were electrophoresed on 10% SDS-PAGE gel and transferred onto PVDF membranes. After blocked with 5% nonfat milk in TBST (50 mM Tris-HCl (pH 7.4), 150 mM NaCl and 0.1% Tween 20) for 1 h, the membranes were incubated with various primary antibodies overnight and secondary antibodies for 3 h, finally detected using an ECL system. The blots were captured with ChemiDoc XRS+System (Bio-Rad, Hercules, CA, USA).
(A western blot detects proteins with antibodies after separation by electrophoresis.)

Assay [14] has as its system Nur77. In words: Western blot of Nur77 expression. The settings on record: HGC-27 cells, concentration gradient. In kind it is cell-based, human. The method, then: as §4
The target in assay [15] is T1, Nur77 (Homo sapiens, UniProt P22736).
T1 construct: endogenous in cells; host or cells: HGC-27
In words: Nur77 localization by nuclear-cytosol fractionation and immunofluorescence. In kind it is cell-based. The settings on record: HGC-27 cells, 3 h, 10 µM for immunofluorescence. How it is done: Cells in the logarithmic phase of growth were seeded in 6-cm dishes; after, apposition cells were treated with compound 9h for 3 h. The medium was discarded and washed twice with pre-chilled PBS, then the cells were scraped off with a cytoscraper and collected into 1.5 mL centrifuge tubes and centrifuged at 1500 rpm for 3 min. Next, 80 μL of Buffer B (containing 100× protease inhibitor) were added for 20 min in an ice bath, followed by 20 μL of Buffer B containing 1% TritonX-100. The mixture was vortexed for 10 s, centrifuged at 10,000× g for 15 min at 4 °C, the supernatant collected as cytoplasmic proteins and the precipitate as the nuclear fraction. Then, 100 μL of Buffer C containing 0.4% TritonX-100 were added and centrifuged for 15 min at 4 °C, and 100 uL of Buffer C containing 0.4% TritonX-100 were added and vortexed for 30 min at 4 °C, centrifuged at 15,000× g for 15 min at 4 °C, and the supernatant was the nucleus protein.
The cells were inoculated into the culture dish with preplaced treated coverslips, and the coverslips were removed when the cells were close to growing into a monolayer. Then, they were washed twice with PBS and 4% paraformaldehyde was used to fix the cells for 30 min. The cells were permeabilized with 1‰ TritonX-100 for 10 min. […] One drop of blocker containing DAPI dye was added and the slice sealed and this was examined by fluorescence microscopy.

T1 sequence (P22736 whole entry): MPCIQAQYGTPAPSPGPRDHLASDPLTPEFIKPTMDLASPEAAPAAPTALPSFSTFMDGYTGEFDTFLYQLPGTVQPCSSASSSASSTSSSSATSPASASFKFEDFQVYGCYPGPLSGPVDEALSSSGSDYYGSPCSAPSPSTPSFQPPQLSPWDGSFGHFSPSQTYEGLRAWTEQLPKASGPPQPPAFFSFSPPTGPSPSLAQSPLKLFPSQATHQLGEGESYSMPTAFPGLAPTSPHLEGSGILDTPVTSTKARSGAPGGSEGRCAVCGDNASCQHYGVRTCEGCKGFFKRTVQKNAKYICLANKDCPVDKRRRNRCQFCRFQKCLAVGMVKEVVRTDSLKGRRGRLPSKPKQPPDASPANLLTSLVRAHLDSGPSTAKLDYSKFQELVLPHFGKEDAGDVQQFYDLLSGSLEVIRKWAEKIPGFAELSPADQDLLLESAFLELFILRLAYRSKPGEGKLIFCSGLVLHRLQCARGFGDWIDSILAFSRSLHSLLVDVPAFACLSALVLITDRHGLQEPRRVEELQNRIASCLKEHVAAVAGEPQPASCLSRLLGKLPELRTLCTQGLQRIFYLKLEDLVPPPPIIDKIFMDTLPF

For “4-(2-Chlorophenyl)-1-(2-(6-methoxynaphthalen-2-yl)-6-methylnicotinoyl)semicarbazide [Compound 9h]”, the IC50 in [1] came to 4.12 ± 0.08 µM; in assay [2] it was 1.4 ± 0.11 µM; in assay [3], 3.3 ± 0.21 µM; in assay [4], 5.1 ± 0.01 µM; in [5], 7.3 ± 0.21 µM; in assay [6], 4.3 ± 0.33 µM. The IC50 was 9.2 ± 0.24 µM in assay [7], over 50 µM in assay [8], over 50 µM in assay [9] and over 50 µM in [10]. In addition, the “Colony formation of HGC-27 cells” value in assay [11] was “completely inhibited colony formation”. Moreover, the “Effect on cell cycle” value in [12] was “induced cell cycle blockage in G2-M phase”. Also, in [13], the PARP cleavage entry was “induce the PARP cleavage in a dose-dependent and time-dependent manner”. The Nur77 expression result in assay [14] is reported as “induced Nur77 expression”. Moreover, in [15], the Nur77 nuclear export result is “significantly induced Nur77 nuclear export”.

The term IC50 denotes the concentration at which inhibition is half-maximal.

The values above are taken from publication PMC8911927, “Synthesis and Biological Evaluation of 1-(2-(6-Methoxynaphthalen-2-yl)-6-methylnicotinoyl)-4-Substituted Semicarbazides/Thiosemicarbazides as Anti-Tumor Nur77 Modulators” (Molecules, 2022).
